Columns and labels:
[1] = target: Kappa-type opioid receptor (Homo sapiens, UniProt P41145); test: Agonist activity at recombinant kappa opioid receptor expressed in human U2OS cells coexpressing beta arrestin/EA complex assessed as beta arrestin recruitment after 60 mins by luminescence spectrophotometry; assay type: functional, cell-based
[2] = target: Kappa-type opioid receptor (Cavia porcellus, UniProt P41144); test: Agonist activity at kappa opioid receptor in guinea pig ileum assessed as electric field-stimulated response; assay type: functional, tissue-based
Chain of Kappa-type opioid receptor (Cavia porcellus, UniProt P41144) (P41144 whole entry): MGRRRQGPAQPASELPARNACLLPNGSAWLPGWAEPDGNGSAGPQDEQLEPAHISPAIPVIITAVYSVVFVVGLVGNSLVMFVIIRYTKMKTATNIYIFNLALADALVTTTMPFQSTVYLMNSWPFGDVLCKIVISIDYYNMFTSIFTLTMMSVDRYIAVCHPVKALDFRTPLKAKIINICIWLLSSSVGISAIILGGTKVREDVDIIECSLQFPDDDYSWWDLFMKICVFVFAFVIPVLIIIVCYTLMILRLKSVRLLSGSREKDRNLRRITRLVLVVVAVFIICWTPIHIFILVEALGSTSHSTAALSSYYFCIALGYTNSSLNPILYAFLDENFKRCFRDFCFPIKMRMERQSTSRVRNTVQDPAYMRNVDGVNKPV

Chain of Kappa-type opioid receptor (Homo sapiens, UniProt P41145) (P41145 whole entry): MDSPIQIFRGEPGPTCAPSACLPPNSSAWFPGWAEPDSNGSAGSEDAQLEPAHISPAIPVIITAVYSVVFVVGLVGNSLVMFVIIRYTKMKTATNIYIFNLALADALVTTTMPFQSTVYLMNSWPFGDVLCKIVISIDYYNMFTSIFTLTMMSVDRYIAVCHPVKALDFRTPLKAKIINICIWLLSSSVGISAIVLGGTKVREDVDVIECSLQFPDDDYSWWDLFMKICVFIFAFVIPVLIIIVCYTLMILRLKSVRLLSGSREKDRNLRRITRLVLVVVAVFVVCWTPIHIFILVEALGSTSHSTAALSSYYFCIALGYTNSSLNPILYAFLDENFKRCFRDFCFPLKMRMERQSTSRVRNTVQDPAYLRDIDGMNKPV

CC(C)C[C@@H](NC(=O)[C@@H](Cc1ccccc1)NC(=O)[C@H](N)Cc1ccccc1)C(=O)N[C@H](CCCCN)C(=O)NCC(=O)NCC(=O)NCC(=O)NCCSC1CC(=O)N(CCC(=O)NCCOCCOCCC(=O)Nc2ccc(CCC(=O)N3CCC3=O)cc2)C1=O (stereo partly drawn)
EC50 [1]: 176 nM

CC(C)C[C@@H](NC(=O)[C@@H](Cc1ccccc1)NC(=O)[C@H](N)Cc1ccccc1)C(=O)N[C@H](CCCCN)C(N)=O
EC50 [1]: 3 nM
EC50 [2]: 0.22 nM

CC(C)C[C@@H](NC(=O)[C@@H](Cc1ccccc1)NC(=O)[C@H](N)Cc1ccccc1)C(=O)N[C@H](CCCCN)C(=O)NCC(=O)NCC(=O)NCC(=O)NCCSC1CC(=O)N(c2ccc(CCC(=O)N3CCC3=O)cc2)C1=O (stereo partly drawn)
EC50 [1]: 5 nM

CC(C)C[C@@H](NC(=O)[C@@H](Cc1ccccc1)NC(=O)[C@H](N)Cc1ccccc1)C(=O)N[C@H](CCCCN)C(=O)N1CCC(C(=O)NCCOCCOCC(=O)NCC(=O)NCc2cn(-c3ccc(C(=O)Nc4ccc(CCC(=O)N5CCC5=O)cc4)cc3)nn2)CC1
EC50 [2]: 0.1 nM

CC(C)C[C@@H](NC(=O)[C@@H](Cc1ccccc1)NC(=O)[C@H](N)Cc1ccccc1)C(=O)N[C@H](CCCCN)C(=O)NCC(=O)NCCSC1CC(=O)N(CCC(=O)NCCOCCOCCC(=O)Nc2ccc(CCC(=O)N3CCC3=O)cc2)C1=O (stereo partly drawn)
EC50 [1]: 1480 nM

CC(C)C[C@@H](NC(=O)[C@@H](Cc1ccccc1)NC(=O)[C@H](N)Cc1ccccc1)C(=O)N[C@H](CCCCN)C(=O)NCC(=O)NCCSC1CC(=O)N(c2ccc(CCC(=O)N3CCC3=O)cc2)C1=O (stereo partly drawn)
EC50 [1]: 3 nM

CC(C)C[C@@H](NC(=O)[C@@H](Cc1ccccc1)NC(=O)[C@H](N)Cc1ccccc1)C(=O)N[C@H](CCCCN)C(=O)N1CCC(CC(=O)NCCOCCOCC(=O)NCC(=O)NCc2cn(-c3ccc(C(=O)Nc4ccc(CCC(=O)N5CCC5=O)cc4)cc3)nn2)CC1
EC50 [2]: 0.2 nM

— ChEMBL document CHEMBL2029319, “Kappa agonist CovX-Bodies” (Bioorg Med Chem Lett, 2012)
